SMILES | melting point [°C]
COc1ccc2c(Cl)cc(-c3ccc(Cl)cc3)nc2c1 | 153 to 155
CC(C)(N)CNC(CO)(CO)CO | 73 to 75
COCC(=O)C1CCC2C3CCC4CC(=O)CCC4(C)C3CCC12C (stereo unspecified) | 156
CCN(CC)c1ccc(N=Nc2ccc(OCCOC)c(S(=O)(=O)Cl)c2)cc1 | 103 to 104
Cc1nnc2c3c(c(NCCN4CCCC4)nn12)CCCC3 | 184 to 186
CC(C)(C)NC(=O)N1CCn2cc(-c3ccccc3)c(C(N)=O)c2C1 | 156 to 158
COc1cc(C(C)C)c(Oc2cnc(N)nc2N)cc1N1CCN(S(C)(=O)=O)CC1 | 115 to 117
O=C(NCC1CCNCC1)c1ccccc1 | 119
CCn1cc(C(=O)O)c(=O)c2cc(F)c(N3CCN(O)CC3)c(F)c21 | 253 to 260
O=C1c2cc(Cl)ccc2NCN1CCN1CCOCC1 | 82
CC(C)(C)OC(=O)N1CCC2(CC1)CC(c1ccc(C#N)cc1)=NO2 | 169 to 171
O=[N+]([O-])c1cc2cc(Cl)ccc2nc1Cl | 190
Cc1ccc(CI)cc1Cl | 88
O=[N+]([O-])c1ccc(CN2CCCC(O)c3ncccc32)cc1 (stereo unspecified) | 182 to 185
NCc1ccc(-c2csc(N)n2)s1 | 189
CN(C)C(=S)Oc1ccccc1C#N | 112
Clc1nc(Cl)c2ncn(C3CCCCC3)c2n1 | 116 to 121
CC1(CCCCn2c(=O)oc3ccccc32)Cn2cc([N+](=O)[O-])nc2O1 (stereo unspecified) | 155 to 158
Nc1cc(C=O)ncc1F | 133 to 135

SMILES | melting point [°C]
CC(C)(C)OC(=O)NC[C@H](O)CC(=O)NN | 144
CCOC(=O)C(C)c1csc(=Nc2ccccc2)n1C (stereo unspecified) | 80 to 81
FC(F)(F)c1cccc(Oc2nccc(-c3ccc(Cl)c(Cl)c3)n2)c1 | 106
O=C(O)COC1CCN(C(=O)CN2CCN(c3ccncc3)CC2)CC1 | 198 to 200
c1ccc(COc2ccccc2OCCNCCCNc2ncccn2)cc1 | 90.1
COc1cc2ccc(C(=O)C(C)C)cc2cc1OC | 103 to 105
COC(=O)c1cccc(Sc2ccc(N(C)C)cc2)c1 | 88 to 90
O=Cc1ccc(O)c(OCc2ccccc2)c1 | 123 to 124
COc1cc(C(=O)C=Cc2ccncc2)cc(OC)c1OC | 127 to 129
C#C[C@@](C)(O)CCC1=C(C)C(=O)C(C)=C(C)C1=O | 80 to 82
CCOc1ccc(N=Cc2cc(OC)c(OC)c(OC)c2)cc1 | 75 to 77
CC(=O)N1CCCC(C(=O)c2ccc(N3CCCCC3)cc2)C1 (stereo unspecified) | 116 to 120
CC(C)(C)c1ccc(/C=C/C(=O)OCc2ccccc2)cc1 | 59 to 62
Cc1nccn1-c1nc(-c2ccc(Cl)cc2)c(CCC(=O)O)o1 | 195 to 197
C(#Cc1ccc2[nH]ccc2c1)CCN1CC=C(c2ccccc2)CC1 | 173 to 174
CCCOC(=O)Nc1nc(=O)n(C2OC(C)C(O)C2O)cc1F (stereo unspecified) | 125 to 126
CCOC(=O)c1c(Cl)nc2cc(F)c(F)cc2c1CCl | 264
CS(=O)(=O)Nc1cccc(Nc2nc(NCCc3ccccn3)c3nc[nH]c3n2)c1 | 199 to 202
N#Cc1cccc(NCCC(=O)O)c1 | 119

SMILES | melting point [°C]
CCCc1nc2c(N)nc3cc(OCCCNS(C)(=O)=O)ccc3c2s1 | 168 to 171
NC(=O)c1nnc2n1-c1ccc(Cl)cc1C(c1ccccc1)=NC2 | 285 to 289
O=C(O)Cc1c([N+](=O)[O-])cc(O)c(O)c1[N+](=O)[O-] | 178 to 184
Nc1ccc2c(c1N)Cc1ccccc1-2 | 240 to 243
CCOc1cc(-n2nc(C)c(Cl)c2C)c(F)cc1Cl | 106 to 108
CCCc1nc2cc3c(cc2[nH]1)NC(=O)C3(C)C | 284 to 285
OCc1cnoc1-c1cc(Cl)cc(Cl)c1 | 104 to 105
CON=C(C(=O)O)C(=O)CBr | 76 to 78
O=C(Cl)c1cc([N+](=O)[O-])ccc1F | 59 to 60
COc1cc(OC)nc(OC(C(=O)N[C@@H](C)C(=O)O)C(C)C)n1 (stereo partly specified) | 157 to 160
CN1C(=O)CN(C(=O)CN)C(c2ccccc2)c2cc(Cl)ccc21 (stereo unspecified) | 158 to 160
CCCCCC(=O)Oc1ccc(-c2ccc(C#N)cc2)cc1 | 56.1
C=Cc1ccc(CN2CCNCCN(Cc3ccc(C=C)cc3)CC2)cc1 | 162 to 164
Cc1cc(OCCN2CCCCC2)ccc1NC(=O)NC1C2CC3CC(C2)CC1C3 (stereo unspecified) | 196
O=[N+]([O-])c1c(C2C=CCCC2)ccnc1Cl (stereo unspecified) | 54.5 to 55.4
COc1ccc(C2=NNC(=O)CS2)c(OC)c1 | 162 to 164
Nc1nccn2nc(SCc3ccccc3)nc12 | 144 to 145
C1=C(c2ccccc2)CCN(Cc2nc3ccccc3[nH]2)C1 | 253 to 255
CN1C(C)(C)CC2(CC1(C)C)NC(=O)N(CC(O)CN1C(=O)NC3(CC(C)(C)N(C)C(C)(C)C3)C1=O)C2=O | 255 to 256

The next lines start with the values.

melting point [°C] | SMILES
170 to 171 | Cc1cccc2cc3c(=O)n(CCCN4CCCC4=O)cc(C(=O)NCCN(C)C)c3nc12
92 | CCN(CC)C(=O)c1cc2ccccc2c(-c2cccc(F)c2)n1
249 | CCC(=O)NC1(c2ccccc2Cl)C(=O)N(Cc2ccc(C(=O)NC(C)(C)C)cc2OC)c2ccc(Cl)cc21 (stereo unspecified)
> 250 | Cn1ncc(C(=O)N2CCS(=O)(=O)CC2)c1C(=O)Nc1ccn2nc(-c3ccccc3)nc2c1
246 to 247 | Oc1ncnc2c1c(Nc1ccccc1)nn2Cc1ccccc1
172 to 174 | O=C(Nc1ccc(-n2nc(-c3ccoc3)cc2OC(F)F)cc1)c1ccncc1F
80 to 84 | c1ccc(C(c2ccccc2)N2CCN(CCCCn3cccc3)CC2)cc1
220 to 223 | Cc1cc2cc(CN3CCCC3)cnc2cc1NC(=O)c1ccc(-c2ccc(F)c(F)c2)cc1
66 to 67 | COc1ccc(-c2ccc(C)nc2-c2ccc(OCCN3CCOCC3)cc2)cc1
165 to 166 | CNC(=O)c1cccc(NC(=O)Cc2ccc(Br)cc2)c1
182 to 184 | Nc1ncnc2c1c(CCCO)nn2Cc1oc2ccccc2c(=O)c1-c1ccccc1
102 to 104 | COc1ccnc(CSc2nc3cscc3n2C(=O)OCc2ccccc2)c1
177 to 178 | NC(=O)c1c(Cl)c(-c2ccccc2)n2c1CN(S(=O)(=O)c1ccc(F)cc1)CC2
226 to 228 | Nc1ncccc1-c1nc2cccnc2n1-c1ccc(CNC(=O)c2ccccc2)cc1
132 | N#CCc1cccc2c(-c3ccc(Cl)cc3)nccc12
109 to 111 | CCCOCc1nc(C(C)(C)O)c(C(=O)O)n1Cc1ccc(-c2ccccc2C(=O)O)cc1
250 to 253 | O=C(O)C1=Cc2cc(Cl)ccc2N(Cc2ccc(Cl)cc2)C1C(F)(F)F (stereo unspecified)
159 to 161 | O=C(Nc1ccc(Oc2ccccc2)cc1)N1CCN(c2ccnc3cc(Cl)ccc23)CC1
97 | C[C@@H](S[C@H]1CO[C@H](c2ccc(C(=O)NCc3cccc4ccccc34)cc2)OC1)[C@](O)(Cn1cncn1)c1ccc(F)cc1F
105 to 112 | Cc1nnsc1C(=O)Nc1ccc(-n2nc(C(F)(F)F)cc2C2CC2)c(F)c1
93 to 96 | O=C(Oc1cccc2ccccc12)c1ccc(CCl)cc1
65 to 66 | C(#Cc1ccccc1)CCN1CCC(c2ccccc2)CC1

melting point [°C] | SMILES
172 to 173 | Cc1nc(-n2ccc(C(F)(F)F)cc2=O)sc1C(=O)NCc1cccnc1
191 to 192 | CC[C@H]1c2ccc(C#N)n2-c2cc(F)c(F)cc2N1S(=O)(=O)c1ccc(O)cc1
183 to 184 | NC(=O)CNC(=O)c1cccc(-c2ccnc3cc(Cc4cccc(C(F)(F)F)c4)sc23)c1
138 | O=C1C=CC(OC(=O)c2ccc([N+](=O)[O-])cc2)(c2nc3ccccc3s2)C=C1
112 to 114 | COc1ccc(NN=C(Sc2ccccc2C)C(C)=O)cc1
248 | COc1ccccc1[C@@]1(O)[C@H](O)CC(c2ccccc2)(c2ccccc2)[C@@H]2CN(C(=O)Cc3c[nH]c4ccc(F)cc34)C[C@@H]21 (racemic)
130 | O=C(N[C@H]1CCN(CCCOc2ccc(F)cc2)C[C@H]1O)c1ccccc1 (relative stereo)
159 to 160 | COc1ccccc1-c1cc(C(F)(F)F)nn1-c1ccc(S(N)(=O)=O)c(F)c1
84 to 85 | Cc1cc(Oc2cccc(C(F)(F)F)c2)nn1C(=O)Nc1ccc(F)cc1F
174 to 176 | Nc1nc(NCc2ccccc2)c2ncn(C3C=CC(CO)C3)c2n1 (stereo unspecified)
158 to 162 | O=C1c2c(Cl)cccc2S(=O)(=O)N1Cn1nnn(-c2ccccc2)c1=S
251 to 253 | O=C(c1ccc(Nc2ccnc3cc(C(F)(F)F)ccc23)cc1)N1CCN(S(=O)(=O)c2ccc(F)cc2)CC1
230 to 232 | Cc1nc(Nc2ccc(Cl)cc2)sc1-c1nc2ccccc2c(=O)n1-c1ccccc1
81 to 82 | CCCOc1ccc(-c2scc(-c3ccccc3Cl)c2CC(=O)OC)cc1
188 to 191 | N=C(NC(=O)Nc1ccc([N+](=O)[O-])cc1)c1ccccc1
82 to 83 | Brc1ccc(N=C(c2ccccc2)c2ccccc2)cc1
189 to 190 | COc1ccc(N2CCN(c3c(C)c(C)c4c(c3C)C(O)(c3ccc5ccccc5c3)C(C)(C)O4)CC2)cc1 (stereo unspecified)
131 to 134 | CS(=O)(=O)NCCC(c1cc(F)ccc1F)S(=O)(=O)c1ccc(Cl)cc1 (stereo unspecified)
144 | Cc1cc(C)cc(NCc2ccc3nc(NC4CCN(CCO)CC4)n(Cc4nc(C)ccc4O)c3c2)c1
100 to 102 | O=C1c2ccccc2C(=O)N1CCCCOc1ccc(-c2ccncn2)cc1
81 to 83 | Cc1ccc(S(=O)(=O)N2CCN([C@H](C)[C@](O)(Cn3cncn3)c3ccc(F)cc3F)CC2)cc1
246 to 247 | CN(C(=O)c1ccccc1C(c1ccc(O)cc1)c1ccc(O)cc1)c1ccccc1
